Laboratory results: PubChem BioAssay (NCI)
Several values for one entry are separate records, joined by “and”; a condition that tells them apart may be missing. Equal entries are not always repeated.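 Results reflect a 48-hour exposure of cells in 96-well plates to compound at five concentrations. Here, GI50 denotes the concentration required for 50% inhibition of growth. The concentration for full growth arrest is given as TGI.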

The compounds below were run on MDA-MB-468 breast (assay: NCI-60 cell line screen, 48 h).

Question: With FC(F)c1nc2ccccc2n1-c1nc(N2CCOCC2)nc(N2CCOCC2)n1 as the compound, how does the GI50 read?
Answer: Its GI50 is 135 nM and 124 nM.

Question: What about the TGI of the same compound?
Answer: Its TGI is 971 nM and 607 nM.

Question: What does the source list for CN(C)CCCOc1ccc(-c2ccc3ncc4c(c3c2)n(C2CCOCC2)c(=O)n4C)cn1?
Answer: GI50: 2080 nM; TGI: 15700 nM

Question: What does the source list for CC[N+](CC)=c1sc2c(s1)C(c1ccc(Cl)cc1)Oc1ccc(Cl)cc1-2 (stereo unspecified)?
Answer: GI50: 1400 nM; TGI: 4120 nM

Question: For COc1cccc(-c2cc(=O)c3cc(OC)ccc3[nH]2)c1, which GI50 is on record?
Answer: Its GI50 is 982 nM.

Question: And the TGI?
Answer: Its TGI is over 100000 nM.

Question: With CNC(=O)c1ccc(N2CCN(Cc3ccc4nc(C)c(=O)[nH]c4c3F)CC2)c(F)n1 as the compound, how does the GI50 read?
Answer: Its GI50 is 27800 nM.

Question: What about the TGI of the same compound?
Answer: Its TGI is over 100000 nM.

Question: With Cc1ccc2c(n1)C(=O)C(Cl)=C(Nc1ccc(C)c(C)c1)C2=O as the compound, how does the GI50 read?
Answer: Its GI50 is 317 nM.

Question: What about the TGI of the same compound?
Answer: Its TGI is 1340 nM.

Question: What does the source list for COc1cc(NC(N)=NCCC(C)(C)Oc2ccc(C(F)(F)F)cc2)ncc1C#N?
Answer: GI50: 1070 nM; TGI: 2440 nM

Question: With C#CCOc1cccc(-c2ncnc3cc(NC(=O)CCl)ccc23)c1 as the compound, how does the GI50 read?
Answer: Its GI50 is 1450 nM.

Question: What about the TGI of the same compound?
Answer: Its TGI is 3540 nM.

Question: With CN[C@H]1C=C[C@@H]2/C=C(C)/C=C/[C@@H](C)[C@H]([C@H](C)[C@H](O)[C@@H](C)NC(C)=O)OC(=O)/C=C/C=C(C)\C=C\[C@]2(C)C1 as the compound, how does the GI50 read?
Answer: The GI50 was < 1 nM and 4.9 nM.

Question: Cc1ccc(-c2csc(/N=C3\C(=O)Nc4ccccc43)n2)cc1 was tested. Which GI50 did it give?
Answer: Its GI50 is 1460 nM.

Question: What about the TGI of the same compound?
Answer: Its TGI is 3510 nM.

Question: What does the source list for CO[C@H]1/C=C/O[C@@]2(C)Oc3c(C)c(O)c4c(c3C2=O)C(=O)C(/C=N/N(c2ccccc2)c2ccccc2)=C(NC(=O)/C(C)=C\C=C\[C@H](C)[C@H](O)[C@@H](C)[C@@H](O)[C@@H](C)[C@H](OC(C)=O)[C@@H]1C)C4=O?
Answer: GI50: 2090 nM; TGI: 4690 nM

Question: Which results are given for CN(C)S(=O)(=O)c1ccc(-c2nc(C(Cl)Cl)nc3cc(-c4ccc(F)cc4)nn23)cc1?
Answer: GI50: 1630 nM; TGI: 4640 nM

Question: What does the source list for Nc1ccc(C2=NN(c3ccccc3)C(c3ccc(Cl)cc3)C2)cc1 (stereo unspecified)?
Answer: GI50: 1660 nM; TGI: 4090 nM

Question: Which results are given for Cc1ccc(C)c2c1C(O)(C#Cc1ccccc1)c1ccccc1C2(O)C#Cc1ccccc1 (stereo unspecified)?
Answer: GI50: 3570 nM; TGI: > 100000 nM

Question: COC(=O)[C@@H](C)C[C@H](Cc1ccccc1)NC(=O)c1csc(CC[C@H](C(C)C)N(C)C(=O)[C@@H](NC(=O)[C@H]2CCCCN2C)C(C)C)n1 was tested. Which GI50 did it give?
Answer: The GI50 was 68.9 nM.

Question: And the TGI?
Answer: Its TGI is 275 nM.

Question: COc1cc(/C=C2\C(=O)Nc3cc(C)c(O)cc32)cc(OC)c1OC was tested. Which GI50 did it give?
Answer: Its GI50 is 1500 nM.

Question: What about the TGI of the same compound?
Answer: Its TGI is 5880 nM.

Question: O=C(Nc1cccc(-n2ccc3c(NC(=O)c4ccccc4)nccc32)c1)Nc1cc(C(F)(F)F)cc(C(F)(F)F)c1 was tested. Which GI50 did it give?
Answer: The GI50 was 1550 nM.

Question: And the TGI?
Answer: Its TGI is 13600 nM.

Question: With CCc1cccc(C)c1NC(=O)c1sc2nc3c(cc2c1N)CCCCC3 as the compound, how does the GI50 read?
Answer: Its GI50 is 4180 nM.

Question: And the TGI?
Answer: Its TGI is over 100000 nM.

Question: Which results are given for CCCNNC(=O)/C=C/c1ccc(CNCCc2c(C)[nH]c3ccccc23)cc1?
Answer: GI50: 27.9 nM; TGI: 529 nM

Question: What does the source list for COc1cc(-c2cc3ncccc3c3nc(N)c4cccnc4c23)cc(OC)c1OC?
Answer: GI50: 555 nM; TGI: 66800 nM

Question: Which results are given for OCc1ccc(-c2ccc(-c3ccc(CO)o3)[se]2)o1?
Answer: GI50: 219 nM; TGI: 704 nM

Question: Which results are given for COc1ccc(-c2cn[nH]c2-c2cc(OC)c3c(c2)OCO3)cc1?
Answer: GI50: 152 nM; TGI: 733 nM

Question: With O=c1c(Oc2ccc(F)cc2F)cc2cnc(NC3CCOCC3)nc2n1CCCO as the compound, how does the GI50 read?
Answer: The GI50 was over 25000 nM.

Question: What about the TGI of the same compound?
Answer: The TGI was over 25000 nM.

Question: Which results are given for COc1ccc(C(=O)/C=C/c2ccc(C)cc2)cc1OC?
Answer: GI50: 11400 nM; TGI: 24600 nM

Question: How did the GI50 turn out when COC(=O)CCC(=O)NC1=C(Nc2ccc(OC)cc2)C(=O)c2ccccc2C1=O was run?
Answer: The GI50 was 3090 nM.

Question: What about the TGI of the same compound?
Answer: The TGI was 12200 nM.

Question: How did the GI50 turn out when Fc1ccc2[nH]cc(-c3nonc3-c3c[nH]c4ccc(Br)cc34)c2c1 was run?
Answer: The GI50 was 1940 nM.

Question: What about the TGI of the same compound?
Answer: The TGI was 4720 nM.

Question: What does the source list for CCC[CH2][Sn]([CH2]CCC)([CH2]CCC)[O]c1ccc(Cl)cc1Cl?
Answer: GI50: 105 nM; TGI: 250 nM

Question: What does the source list for O=S(=O)(Nc1ccccc1Cl)c1ccc(-c2cnc(C3CC3)o2)cc1?
Answer: GI50: 236 nM; TGI: 6910 nM

Question: Which results are given for O=C(CO[N+](=O)[O-])Nc1ccc(C(=O)/C=C/c2ccc(Cl)cc2)cc1?
Answer: GI50: 2060 nM; TGI: 5070 nM

Question: Which results are given for CCOC(=O)N1CCN(c2nc(Nc3cc(C)[nH]n3)c3ccccc3n2)CC1?
Answer: GI50: 1800 nM; TGI: 8420 nM

Question: For S=C(Nc1ccc(Br)cc1)Nc1ccc(Br)cc1, which GI50 is on record?
Answer: Its GI50 is 2260 nM.

Question: What about the TGI of the same compound?
Answer: Its TGI is 14000 nM.

Question: COC(=O)c1c2c(c[n+]([O-])c1C)C(=O)C=CC2=O was tested. Which GI50 did it give?
Answer: The GI50 was 914 nM.

Question: What about the TGI of the same compound?
Answer: Its TGI is 3010 nM.

Question: Which GI50 does the source give for C=C1C(=O)O[C@H]2[C@H]1CC/C(COC(=O)CSCCSCC(=O)OC/C1=C/CC[C@@]3(C)O[C@H]3[C@H]3OC(=O)C(=C)[C@@H]3CC1)=C\CC[C@@]1(C)O[C@@H]21 here?
Answer: The GI50 was 1070 nM.

Question: And the TGI?
Answer: Its TGI is 2850 nM.

Question: With Cc1cnc(NC(=O)Nc2cc(Br)c(C)cc2OC[C@@H]2CNCCO2)cn1 as the compound, how does the GI50 read?
Answer: The GI50 was 3860 nM and 834 nM.

Question: What about the TGI of the same compound?
Answer: The TGI was > 10000 nM and 5490 nM.

Question: How did the GI50 turn out when Cc1nn(-c2nc3ccccc3[nH]2)c(N)c1-c1ccc(Cl)cc1 was run?
Answer: The GI50 was 2690 nM.

Question: And the TGI?
Answer: Its TGI is over 100000 nM.

Question: Which GI50 does the source give for CCN(Cc1cccc(F)c1)c1ccc(CO)c(Cl)c1 here?
Answer: The GI50 was 15.7 nM.

Question: What about the TGI of the same compound?
Answer: The TGI was 38.1 nM.

Question: How did the GI50 turn out when CCOC(=O)c1sc(-c2ccc(OS(=O)(=O)c3ccc(Br)s3)c(C=O)c2)nc1C was run?
Answer: Its GI50 is 2960 nM.

Question: And the TGI?
Answer: Its TGI is 9200 nM.

Question: What does the source list for Cn1cc(C2=C(c3cn(CCCCN)c4ccccc34)C(=O)NC2=O)c2ccccc21?
Answer: GI50: > 25000 nM; TGI: > 25000 nM

Question: What does the source list for Cc1nc(SCC(=O)Nc2nc(-c3ccc(Cl)cc3)cs2)n(Nc2ccccc2)c1C?
Answer: GI50: 1450 nM; TGI: 6270 nM

Question: Which results are given for COC(=O)CCc1c[nH]c2ccc(N(CCCl)CCCl)cc12?
Answer: GI50: 311 nM; TGI: 1810 nM

Question: COc1cc(OC)cc(N(CCNC(C)C)c2ccc3ncc(-c4cnn(C)c4)nc3c2)c1 was tested. Which GI50 did it give?
Answer: Its GI50 is 3070 nM.

Question: What about the TGI of the same compound?
Answer: The TGI was 13000 nM.
